Test results published in US12054660B2, “Compound, composition, cured substance, optically anisotropic body, optical element, and light guide element” (FUJIFILM Corporation, priority 2021, dated 2024).

Columns and labels:
Type in all cases: physicochemical
[1] = Measurement of Δn (refractive index anisotropy), wedge-shaped liquid crystal cell; conditions: 550 nm, 30° C. or lower limit temperature of nematic phase+0 to 10° C.; some extrapolated from 1/2 mixture with L-1-1
Protocol: The Δn of each of the compounds of Examples and Comparative Examples (the compounds A-1, A-3 to A-20, and the compounds RA-1 and RA-2), which are the compounds to be measured, was measured by a method using a wedge-shaped liquid crystal cell described on page 202 in the Liquid crystal handbook (edited by the liquid crystal handbook editorial board, published by Maruzen Co., Ltd., 2000). An was defined as a measured value at a wavelength of 550 nm at 30° C. or the lower limit temperature of the nematic phase+0° C. to 10° C. In a case of a compound which is liable to crystallize or a compound having no liquid crystallinity, evaluation was carried out using a mixture thereof with the other liquid crystal compound, and Δn was estimated from the extrapolated value of the measured value thereof. The following L-1-1 was used as the other liquid crystal compound. As the above mixture, a mixture obtained by mixing at a ratio of the compound to be measured/the L-1-1=1/2 (in terms of mass ratio) was used.
A case where Δn was 0.35 or more was evaluated as A, a case where Δn was 0.32 or more and less than 0.35 was evaluated as B, a case where Δn was 0.30 or more and less than 0.32 was evaluated as C, and a case where Δn was less than 0.30 was evaluated as D. The results are shown in Table 1.

[2] = Evaluation of liquid crystallinity (hot stage, polarization microscope); set-up: key: A case of having liquid crystallinity was evaluated as A; a case of having no liquid crystallinity was evaluated as B; conditions: heated on a hot stage
From the text: As a specific observation method, optical anisotropy and fluidity derived from the liquid crystal phase can be checked by carrying out an observation under a polarization microscope while heating or lowering the temperature of the compound with a hot stage or the like.
The respective compounds of Examples and Comparative Examples (the compounds A-1, A-3 to A-20, and the compounds RA-1 and RA-2) were heated on a hot stage and observed with a polarization microscope, and the phase transition temperature was measured to evaluate the presence or absence of liquid crystallinity. A case of having liquid crystallinity was evaluated as A, and a case of having no liquid crystallinity was evaluated as B. The results are shown in Table 1.

[3] = Evaluation of solubility in methyl ethyl ketone; conditions: precipitation concentration in methyl ethyl ketone at room temperature (25° C.)
Protocol: The solubility of each of the compounds of Examples and Comparative Examples (the compounds A-1, A-3 to A-20, and the compounds RA-1 and RA-2) in methyl ethyl ketone was evaluated. A solution in which the compound was ultrasonically dissolved or dissolved by heating was produced.

[4] = Evaluation of durability (moisture-heat resistance test) of optically anisotropic layer; conditions: rate of change in Re of layer (25 parts compound/75 parts L-1) after 136 hours at 100° C., 95% RH
Protocol: (§1) As shown below, the durability of the optically anisotropic layer produced using the composition containing each of the compounds A-1 and A-3 to A-20, and the compounds RA-1 and RA-2 was evaluated.
(§2) A coating composition having the following composition was prepared and applied by spin coating onto a rubbing-treated glass attached with an alignment film.
(§3) The polymerizable liquid crystal compound L-1 is a mixture obtained by mixing at a ratio of the following L-1-1/L-1-2/L-1-3=84/14/2 (in terms of mass ratio).
(§4) Re is an in-plane retardation. Rate of change in Re (%)=[100×{|(Re after test)−(Re before test)|}/(Re before test)]
(§5) Re was measured with Axoscan manufactured by Axometrics, Inc. at a wavelength of 550 nm, and the measurement temperature was set to room temperature.
The produced optically anisotropic layer was allowed to be left for 136 hours at 100° C. and a relative humidity of 95% RH, whereby a moisture-heat resistance test was carried out. The rate of change in Re before and after the durability test was evaluated, the durability in a case where the rate of change in Re was less than 10% was evaluated as A, and the durability in a case where the rate of change in Re was 10% or more was evaluated as B. The smaller the rate of change in Re, the more excellent the durability.

[5] = Evaluation of light resistance of optically anisotropic layer; conditions: rate of change in Re of layer (25 parts compound/75 parts L-1) after xenon irradiation 50 hours, 63° C., 50% RH, oxygen-blocking
Protocol: as §1, §2, §3
The produced optically anisotropic layers for light resistance/durability tests were irradiated with light using a Super Xenon Weather Meter SX75 manufactured by Suga Test Instruments Co., Ltd. Using KU-1000100 manufactured by King Seisakusho Co., Ltd. as an ultraviolet ray cut filter, irradiation with 5 million 1× of light was carried out for 50 hours under the oxygen-blocking conditions to carry out a light resistance test. The temperature of the specimen to be tested (the temperature inside the test device) was set to 63° C. The relative humidity in the test device was 50% RH.
The Re of the optically anisotropic layer before and after the light resistance test was measured, the light resistance in a case where the rate of change in Re described below was less than 10% was evaluated as A, and the light resistance in a case where the rate of change in Re was 10% or more was evaluated as B. The smaller the rate of change in Re, the more excellent the light resistance.
as §4, §5

For `C=CC(=O)OCCSc1ccc(C#Cc2ccc(OCCOc3ccc(C#Cc4ccc(SCCOC(=O)C=C)cc4)cc3C(=O)OC)c(C(=O)OC)c2)cc1` [Compound A-18], the Δn [1] was “A (A case where Δn was 0.35 or more was evaluated as A)”, the Liquid crystallinity [2] was “A” and the Solubility [3] was “A (the solubility in a case where the precipitation concentration was 10% by mass or more was evaluated as A)”. The Durability [4] was “A (the durability in a case where the rate of change in Re was less than 10% was evaluated as A)” and the Light resistance [5] was “A (the light resistance in a case where the rate of change in Re described below was less than 10% was evaluated as A)”.

For `C=CC(=O)OCCSc1ccc(C#Cc2ccc(C(=O)Oc3ccc(C#Cc4ccc(SCCOC(=O)C=C)cc4)cc3C(=O)OC)cc2)cc1` [Compound A-4], the Δn [1] was “A (A case where Δn was 0.35 or more was evaluated as A)”, the Liquid crystallinity [2] was “A” and the Solubility [3] was “A (the solubility in a case where the precipitation concentration was 10% by mass or more was evaluated as A)”. The Durability [4] was “A (the durability in a case where the rate of change in Re was less than 10% was evaluated as A)” and the Light resistance [5] was “B (the light resistance in a case where the rate of change in Re was 10% or more was evaluated as B)”.

For `C=CC(=O)OCCSc1ccc(C#Cc2ccc(OCc3ccc(C#Cc4ccc(SCCOC(=O)C=C)cc4)s3)c(C(=O)OC)c2)cc1` [Compound A-16], the Δn [1] was “A (A case where Δn was 0.35 or more was evaluated as A)”, the Liquid crystallinity [2] was “A” and the Solubility [3] was “A (the solubility in a case where the precipitation concentration was 10% by mass or more was evaluated as A)”. The Durability [4] was “A (the durability in a case where the rate of change in Re was less than 10% was evaluated as A)” and the Light resistance [5] was “B (the light resistance in a case where the rate of change in Re was 10% or more was evaluated as B)”.

For `C=CC(=O)OCCCCSc1ccc(C#Cc2ccc(NC(=O)c3ccc(SCCCCOC(=O)C=C)cc3)c(C(F)(F)F)c2)cc1` [RA-2, reference compound], the Δn [1] was “C (a case where Δn was 0.30 or more and less than 0.32 was evaluated as C)”, the Liquid crystallinity [2] was “A” and the Solubility [3] was “B (the solubility in a case where the precipitation concentration was less than 10% by mass was evaluated as B)”. For the same molecule, the Durability [4] was “A (the durability in a case where the rate of change in Re was less than 10% was evaluated as A)” and the Light resistance [5] was “B (the light resistance in a case where the rate of change in Re was 10% or more was evaluated as B)”.

In the case of `C=CC(=O)OCCOc1ccc(C#Cc2ccc(SCCSc3ccc(C#Cc4ccc(OCCOC(=O)C=C)c(C)c4)cc3)cc2)cc1C` [Compound A-17], the Δn [1] is reported as “A (A case where Δn was 0.35 or more was evaluated as A)”, the Liquid crystallinity [2] is reported as “B” and the Solubility [3] is reported as “A (the solubility in a case where the precipitation concentration was 10% by mass or more was evaluated as A)”. The Durability [4] was “A (the durability in a case where the rate of change in Re was less than 10% was evaluated as A)” and the Light resistance [5] was “A (the light resistance in a case where the rate of change in Re described below was less than 10% was evaluated as A)”.

With `CC(=O)OCCCCCCCCCCOc1ccc(C#Cc2ccc(OC(=O)c3ccc(C#Cc4ccc(OCCCCCCCCCCOC(C)=O)c(F)c4)cc3)cc2)cc1F` [RA-1, reference compound] the Δn [1] was “D (a case where Δn was less than 0.30 was evaluated as D)”, the Liquid crystallinity [2] was “A” and the Solubility [3] was “B (the solubility in a case where the precipitation concentration was less than 10% by mass was evaluated as B)”. The Durability [4] was “A (the durability in a case where the rate of change in Re was less than 10% was evaluated as A)” and the Light resistance [5] was “B (the light resistance in a case where the rate of change in Re was 10% or more was evaluated as B)”.

For `CC(=O)OCCSc1ccc(C#Cc2ccc(COc3ccc(C#Cc4ccc(CCOC(C)=O)cc4)cc3)cc2C)cc1` [Compound A-13], the Δn [1] was “B (a case where Δn was 0.32 or more and less than 0.35 was evaluated as B)”, the Liquid crystallinity [2] was “A” and the Solubility [3] was “A (the solubility in a case where the precipitation concentration was 10% by mass or more was evaluated as A)”. For the same molecule, the Durability [4] was “B (the durability in a case where the rate of change in Re was 10% or more was evaluated as B)” and the Light resistance [5] was “A (the light resistance in a case where the rate of change in Re described below was less than 10% was evaluated as A)”.
